The source of these data is US10308689B2, “Dengue virus (DV) polypeptide sequences, T cell epitopes and methods and uses thereof” (LA JOLLA INSTITUTE FOR ALLERGY AND IMMUNOLOGY, priority 2010, dated 2019).

Ends that are not written are not given here.

Assay [1] has as its target purified HLA molecules (corresponding predicted allele). Put plainly: MHC peptide-binding assay, summary over alleles. The arrangement: species or system human.
The subject of assay [2] is PBMC of healthy adult blood donors from Colombo, Sri Lanka. As to the kind of experiment: Ex vivo IFNγ ELISPOT, HLA-matched PBMC of Sri Lankan blood donors. The note with it: for # donors responded: number of donors responding to the epitope; for T cell response [SFC]: ex vivo IFNγ SFC/10^6 PBMC; for # of responders: responding donors, HLA allele(s). Set-up: Total Response per epitope: unit not given here. Format: cell-based, human.

The mark [3] stands for this setting: restricting HLA allele and serotype as given.
Setting [4] is: total over responding donors, restricting HLA allele and serotype as given.
Setting [5] is: IFNγ ELISPOT response summed over responding donors, per epitope.
Setting [6] is: HLA-matched PBMC, proteome-wide screen.
Where [7] appears, read: HLA allele, supertype and serotype.
Setting [8] is: summed IFNγ ELISPOT response per epitope, HLA allele and serotype as given.

A word on the IC50: it is the point on the concentration scale where inhibition reaches its midpoint. With `CC[C@H](C)[C@H](N)C(=O)N[C@@H](CS)C(=O)N[C@@H](CO)C(=O)N[C@@H](C)C(=O)N[C@H](C(=O)N1CCC[C@H]1C(=O)N[C@H](C(=O)N[C@@H](Cc1c[nH]cn1)C(=O)N[C@@H](Cc1c[nH]c2ccccc12)C(=O)O)C(C)C)C(C)C`, in assay [1] (allele B*5801), the IC50 was 0.006 µM. Besides, the “# donors responded” value in assay [2] (setting [3]) is 1. For the same molecule, the “Total Response per epitope” value in assay [2] (setting [4]) was determined as 115.0.
Regarding ATGPITTLW, the IC50 in assay [1] (allele B*5801) is 0.005 µM. Also, the “# donors responded” value in assay [2] (setting [3]) stood at 1. Also, the “T cell response [SFC]” value in assay [2] (per epitope) is recorded as 505 SFC. Moreover, the “# of responders” value in assay [2] is given as 1. The “Total Response per epitope” value in assay [2] (setting [4]) was found to be 505.0.
As to DPASIAARGY, in assay [1] (allele B*3501), the IC50 was 5.62 µM. The “# donors responded” value in assay [2] (setting [3]) is given as 9. For the same molecule, in assay [2] (per epitope), the “T cell response [SFC]” value was determined as 2383 SFC. The “# of responders” value in assay [2] came to 9. The “Total Response per epitope” value in assay [2] (setting [4]) is on record as 2383.3.
For the molecule GEGLHKLGY, in assay [1] (allele B*4403), the IC50 is 0.281 µM. In assay [2] (setting [3]), the “# donors responded” value was 2. The “Total Response per epitope” value in assay [2] (setting [4]) is reported as 413.3.
As to KVRKDIQQW, the IC50 in assay [1] (allele B*5701) is 0.015 µM. Moreover, the “Total Response per epitope” value in assay [2] (setting [5]) stood at 38.3. Further, in assay [2] (setting [6]), the “# donors responded” value is reported as 1.
Take LPVWLAYKVA: the IC50 in assay [1] (allele B*3501) was 5.1 µM. Besides, the “Total Response per epitope” value in assay [2] (setting [5]) is reported as 2426.7. Moreover, the “# donors responded” value in assay [2] (setting [6]) came out at 7. Further, in assay [2] (per epitope), the “T cell response [SFC]” value was 2427 SFC. Further, the “# of responders” value in assay [2] worked out at 7.
LWEGSPGKF: the IC50 in assay [1] (allele A*2402) is 6.17 µM. Further, in assay [2] (setting [5]), the “Total Response per epitope” value amounted to 25.0. Besides, the “# donors responded” value in assay [2] (setting [6]) came out at 1.
For MALSIVSLF, the IC50 in assay [1] (allele B*5101) was 0.605 µM. Further, the “# donors responded” value in assay [2] (setting [3]) is recorded as 1. In addition, the “Total Response per epitope” value in assay [2] (setting [4]) was found to be 48.3.
Regarding MAVGMVSIL, the IC50 in assay [1] (allele B*3501) is 0.01 µM. Also, the “Total Response per epitope” value in assay [2] (setting [5]) was 361.7. For the same molecule, the “# donors responded” value in assay [2] (setting [6]) is reported as 5.
In the case of MEITAEWLW, the IC50 in assay [1] (allele B*5801) is 0.005 µM. Also, the “Total Response per epitope” value in assay [2] (setting [5]) was determined as 583.3. Moreover, the “# donors responded” value in assay [2] (setting [6]) turned out to be 1. The “T cell response [SFC]” value in assay [2] (per epitope) is 583 SFC. Further, in assay [2], the “# of responders” value was found to be 1.
As for MLVTPSMTM, the IC50 in assay [1] (allele B*3501) was 3.85 µM. For the same molecule, the “Total Response per epitope” value in assay [2] (setting [5]) came out at 1735.0. For the same molecule, the “# donors responded” value in assay [2] (setting [6]) was found to be 8. Besides, the “T cell response [SFC]” value in assay [2] (per epitope) came to 1735 SFC. The “# of responders” value in assay [2] stood at 8.
For MMATIGIAL [MMATIGIAL], the IC50 in assay [1] (allele B*3501) is 1.12 µM. Moreover, the “Total Response per epitope” value in assay [2] (setting [5]) is listed as 908.3. The “# donors responded” value in assay [2] (setting [6]) was 6.
Consider NPEIEDDIF, for which the IC50 in assay [1] (allele B*3501) was 0.518 µM. Further, the “Total Response per epitope” value in assay [2] (setting [5]) stood at 3390.0. The “# donors responded” value in assay [2] (setting [6]) is 10. The “T cell response [SFC]” value in assay [2] (per epitope) worked out at 3390 SFC. The “# of responders” value in assay [2] came out at 10.
Consider QYIFTGQPL, for which the IC50 in assay [1] (allele A*2402) was 0.271 µM. In addition, in assay [2] (setting [5]), the “Total Response per epitope” value is 138.3. For the same molecule, in assay [2] (setting [6]), the “# donors responded” value is reported as 1.
For RAAVEDEEF, the IC50 in assay [1] (allele B*5801) is 0.866 µM. For the same molecule, the “Total Response per epitope” value in assay [2] (setting [5]) amounted to 381.7. In assay [2] (setting [6]), the “# donors responded” value worked out at 1.
On to TPPGSRDPF, for which the half-inhibitory concentration (IC50) in assay [1] (allele B*3501) is 0.161 µM. In addition, the “# donors responded” value in assay [2] (setting [7]) is 7. Moreover, in assay [2] (setting [8]), the “Total Response per epitope” value stood at 1416.7.
Take VATTFVTPM: in assay [1] (allele B*3501), the IC50 is 0.205 µM. In addition, the “# donors responded” value in assay [2] (setting [7]) was 8. Moreover, the “T cell response [SFC]” value in assay [2] (per epitope) was 2777 SFC. Besides, the “# of responders” value in assay [2] is reported as 8. In addition, in assay [2] (setting [8]), the “Total Response per epitope” value amounted to 2776.7.
Consider VPLLAIGCY, for which the IC50 in assay [1] (allele B*3501) is 0.168 µM. The “# donors responded” value in assay [2] (setting [7]) is given as 7. Further, the “T cell response [SFC]” value in assay [2] (per epitope) is recorded as 1520 SFC. For the same molecule, the “# of responders” value in assay [2] was determined as 7. Further, in assay [2] (setting [8]), the “Total Response per epitope” value is on record as 1520.0.
For YENLKYSVI, the IC50 in assay [1] (allele B*4402) is 0.09 µM. In addition, the “# donors responded” value in assay [2] (setting [7]) turned out to be 1. Also, in assay [2] (setting [8]), the “Total Response per epitope” value worked out at 381.7.
